Test results as given in US20240150301A1, “METHODS OF MODULATING ANDROGEN RECEPTOR CONDENSATES” (ETERN BIOPHARMA (SHANGHAI) CO., LTD., priority 2021, published 2024).

Legend:
AR = biological target: T1, AR (Homo sapiens, UniProt P10275); assay: ARE-luciferase reporter assay in LNCaP cells (DHT-induced); assay type: cell-based; conditions: 1 nM DHT, 24 h, normalized to cell viability, read-out: LNCaP ARE-luc IC50
T1 sequence (P10275 1-920 T878A): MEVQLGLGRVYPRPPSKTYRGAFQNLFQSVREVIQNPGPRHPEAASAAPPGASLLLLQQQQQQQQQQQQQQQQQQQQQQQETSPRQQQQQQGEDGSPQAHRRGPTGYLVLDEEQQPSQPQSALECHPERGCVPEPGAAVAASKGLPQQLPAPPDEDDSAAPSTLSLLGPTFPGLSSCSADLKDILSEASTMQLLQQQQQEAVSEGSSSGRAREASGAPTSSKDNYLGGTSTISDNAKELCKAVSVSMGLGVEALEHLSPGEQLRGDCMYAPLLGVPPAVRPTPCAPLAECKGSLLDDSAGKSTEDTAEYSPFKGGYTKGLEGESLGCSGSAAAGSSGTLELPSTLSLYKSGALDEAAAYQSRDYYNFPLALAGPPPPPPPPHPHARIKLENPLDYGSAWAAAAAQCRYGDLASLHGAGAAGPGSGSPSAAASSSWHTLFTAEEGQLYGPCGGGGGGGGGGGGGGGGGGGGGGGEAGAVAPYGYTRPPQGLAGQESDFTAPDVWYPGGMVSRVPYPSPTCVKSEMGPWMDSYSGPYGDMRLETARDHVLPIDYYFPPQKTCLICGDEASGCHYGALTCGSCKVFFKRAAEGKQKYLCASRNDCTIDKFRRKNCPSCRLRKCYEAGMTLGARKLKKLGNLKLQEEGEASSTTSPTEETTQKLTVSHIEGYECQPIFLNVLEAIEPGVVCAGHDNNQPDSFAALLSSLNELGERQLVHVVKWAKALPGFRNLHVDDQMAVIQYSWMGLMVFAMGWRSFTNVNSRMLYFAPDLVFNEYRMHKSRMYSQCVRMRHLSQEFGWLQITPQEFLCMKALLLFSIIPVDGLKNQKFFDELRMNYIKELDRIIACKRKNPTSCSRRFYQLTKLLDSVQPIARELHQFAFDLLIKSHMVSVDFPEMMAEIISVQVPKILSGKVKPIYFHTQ
Method: (§1) The ARE-luciferase reporter plasmid contains functional AREs (androgen response elements) to which AR binds in response to androgen to induce luciferase activity. LNCaP (Cobioer) cells were transiently transfected with the ARE-luciferase reporter in charcoal stripped FBS/phenol red-free RPMI medium prior to treatment for 24 hours. Then DMSO or test compounds with serial diluted concentrations were added one hour prior to the addition of DHT(1 nM). After 24 h of incubation with DHT, cells were lysed and luciferase activity was assayed using the ONE-Glo™ Luciferase Assay System (Promega) and measured using EnVision Multimode Plate Reader, according to manufacturer's instructions. Values were normalized to cell viability determined by CellTiter-Glo® Luminescent Cell Viability Assay Kit (Promega). […] GraphPad Prism graphing software was used to calculate IC50 values.

AR V7 = biological target: T2, AR V7 (Homo sapiens, UniProt P10275); assay: ARE-luciferase reporter assay in HEK293T cells cotransfected with AR-V7; assay type: cell-based; parameters: host or cells: HEK293T; conditions: HEK293T cotransfected with AR-V7, hormone-starved, 24 h; read-out: HEK293T(V7) ARE-luc IC50
T2 sequence (P10275 1-644 isoform P10275-3): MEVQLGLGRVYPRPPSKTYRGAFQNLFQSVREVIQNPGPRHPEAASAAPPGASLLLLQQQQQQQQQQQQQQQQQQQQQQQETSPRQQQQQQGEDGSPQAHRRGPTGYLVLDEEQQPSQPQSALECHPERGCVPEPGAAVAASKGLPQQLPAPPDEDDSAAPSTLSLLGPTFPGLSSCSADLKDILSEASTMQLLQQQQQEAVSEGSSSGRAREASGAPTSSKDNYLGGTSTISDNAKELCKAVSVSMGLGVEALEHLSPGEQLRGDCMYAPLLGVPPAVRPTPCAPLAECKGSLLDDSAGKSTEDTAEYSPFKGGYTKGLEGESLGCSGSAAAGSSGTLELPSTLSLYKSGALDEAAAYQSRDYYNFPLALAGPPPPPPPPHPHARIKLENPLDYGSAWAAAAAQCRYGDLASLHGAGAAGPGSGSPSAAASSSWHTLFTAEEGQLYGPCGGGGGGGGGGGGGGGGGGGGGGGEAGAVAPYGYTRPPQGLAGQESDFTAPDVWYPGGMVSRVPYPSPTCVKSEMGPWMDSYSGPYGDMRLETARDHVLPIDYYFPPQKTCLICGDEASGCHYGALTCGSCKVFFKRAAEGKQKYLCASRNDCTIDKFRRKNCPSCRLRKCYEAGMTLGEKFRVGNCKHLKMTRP
Method: as §1
To evaluate the transcriptional activity of AR-V7, HEK293T(Cobioer) cells were transiently cotransfected with an expression vector for AR-V7 and the ARE-luciferase reporter in hormone-starved conditions. For 22Rv1(Cobioer) prostate cancer cell line, which expresses endogenous AR-V7, ARE-luciferase reporter was transiently transfected in hormone-starved conditions. 24 h after transfection, DMSO or test compounds with serial diluted concentrations were added for additional 24 h incubation. Reporter activity was detected and normalized by cell viability as described above. Treatments were normalized to DMSO control activity, and IC50 values were further determined via GraphPad Prism graphing software.

Row | Structure (SMILES) | IC50 (AR) [µM] | IC50 (AR V7) [µM]
1 | CC(C)(c1ccc(OCc2ccnc(N=S3(=O)CCNCC3)n2)cc1)c1cc(Cl)c(OCCCl)c(C#N)c1 [Compound 6, 3-chloro-2-(2-chloroethoxy)-5-(2-(4-((2-((1-oxido-1λ^6-thiomorpholin-1-ylidene)amino)pyrimidin-4-yl)methoxy)phenyl)propan-2-yl)benzonitrile] | 3.5 | 2.1
2 | CC(C)(c1ccc(C#Cc2cnc(NS(C)(=O)=O)nc2)cc1)c1cc(Cl)c(OCCCl)c(C#N)c1 [Compound 60, N-(5-((4-(2-(3-chloro-4-(2-chloroethoxy)-5-cyanophenyl)propan-2-yl)phenyl)ethynyl)pyrimidin-2-yl)methanesulfonamide] | 4.7 | 8.9
3 | CC(C)(c1ccc(OCc2ccnc(NS(C)(=O)=O)n2)cc1)c1cc(Cl)c(OCCCl)c(C#N)c1 [Compound AA, N-(4-((4-(2-(3-chloro-4-(2-chloroethoxy)-5-cyanophenyl)propan-2-yl)phenoxy)methyl)pyrimidin-2-yl) methane sulfonamide, reference compound] | 12.6 | > 20
